Results taken from EP0908457B1, “3-(1,2-benzisothiazol- and isoxazol-5-Y1)-2,4(1H,3H)-pyrimidinedione or thione and 3-(1,2-benzisothiazol- and isoxazol-5-y1)-4(3H)-pyrimidinone or thione herbicidal agents” (BASF AKTIENGESELLSCHAFT, priority 1997, dated 1999).

Legend:
Sagittaria pygmaea, L. = experiment: Preemergence weed control under flooded paddy conditions, SAGPY (Arrowhead (Pygmaea)); format: in vivo; conditions: preemergence, flooded paddy, rated three to four weeks after treatment
[1] = test system: Oryza sativa, (L.) Tebonnet; experiment: Rice tolerance to post-transplant applications under flooded paddy conditions (Example 187), ORYSAT (Rice, Tebonnet); conditions: rated three to four weeks after treatment
[2] = test system: Cyperus serotinus, Rottb.; experiment: Preemergence weed control under flooded paddy conditions, CYPSE (Flatsedge); format: in vivo; conditions: preemergence, rated three to four weeks after treatment
[3] = test system: Monochoria vaginalis, Presl.; experiment: Preemergence weed control under flooded paddy conditions, MOOVA (Monochoria); format: in vivo; conditions: preemergence, flooded paddy, rated three to four weeks after treatment
[4] = test system: Echinochloa oryzoides (Ard.) Fritsch.; experiment: Preemergence weed control under flooded paddy conditions, ECHORC (Watergrass (Calif.)); format: in vivo; conditions: preemergence, flooded paddy, rated three to four weeks after treatment
Cyperus iria = experiment: Preemergence weed control under flooded paddy conditions, CYPIR (Rice Flatsedge); format: in vivo; conditions: preemergence, flooded paddy, rated three to four weeks after treatment
Also: meaning of each grade not given here.

CN(C(=O)c1nsc2ccc(-n3c(=O)cc(C(F)(F)F)n(C)c3=O)cc12)S(C)(=O)=O [Example 367, 1,2-Benzisothiazole-3-carboxamide, 5-[3,6-dihydro-3-methyl-2,6-dioxo-4-(trifluoromethyl)-1(2H)-pyrimidinyl]-N-methyl-N-(methylsulfonyl)-]
6.0: herbicidal effect rating ORYSAT ([1]; Rate 0.2500 kg/ha) | herbicidal effect rating, ECHORC ([4]; Rate 0.2500 kg/ha)
7.0: herbicidal effect rating, CYPIR (Cyperus iria; Rate 0.1250 kg/ha)
9.0: herbicidal effect rating, SAGPY (Sagittaria pygmaea, L.; Rate 0.2500 kg/ha) | herbicidal effect rating, CYPSE ([2]; Rate 0.0620 kg/ha) | herbicidal effect rating, CYPSE ([2]; Rate 0.1250 kg/ha) | herbicidal effect rating, CYPSE ([2]; Rate 0.2500 kg/ha) | herbicidal effect rating, MOOVA ([3]; Rate 0.0320 kg/ha) | herbicidal effect rating, MOOVA ([3]; Rate 0.0620 kg/ha) | herbicidal effect rating, MOOVA ([3]; Rate 0.1250 kg/ha) | herbicidal effect rating, MOOVA ([3]; Rate 0.2500 kg/ha) | herbicidal effect rating, CYPIR (Cyperus iria; Rate 0.2500 kg/ha)
5.0: herbicidal effect rating, SAGPY (Sagittaria pygmaea, L.; Rate 0.1250 kg/ha) | herbicidal effect rating ORYSAT ([1]; Rate 0.1250 kg/ha) | herbicidal effect rating, CYPIR (Cyperus iria; Rate 0.0620 kg/ha)
2.0: herbicidal effect rating, SAGPY (Sagittaria pygmaea, L.; Rate 0.0620 kg/ha)
3.0: herbicidal effect rating, ECHORC ([4]; Rate 0.1250 kg/ha)
0.0: herbicidal effect rating, SAGPY (Sagittaria pygmaea, L.; Rate 0.0320 kg/ha) | herbicidal effect rating ORYSAT ([1]; Rate 0.0320 kg/ha) | herbicidal effect rating ORYSAT ([1]; Rate 0.0620 kg/ha) | herbicidal effect rating, CYPSE ([2]; Rate 0.0320 kg/ha) | herbicidal effect rating, ECHORC ([4]; Rate 0.0320 kg/ha) | herbicidal effect rating, ECHORC ([4]; Rate 0.0620 kg/ha) | herbicidal effect rating, CYPIR (Cyperus iria; Rate 0.0320 kg/ha)

Cn1c(C(F)(F)F)cc(=O)n(-c2ccc3snc(COC(=O)Cc4ccccc4)c3c2)c1=O [Example 369, 2,4(1H,3H)-Pyrimidinedione, 3-[3-(hydroxymethyl)-1,2-benzisothiazol-5-yl]-1-methyl-6-(trifluoromethyl)-, phenylacetate (ester)]
4.0: herbicidal effect rating, CYPSE ([2]; Rate 0.1250 kg/ha)
6.0: herbicidal effect rating, SAGPY (Sagittaria pygmaea, L.; Rate 0.0620 kg/ha) | herbicidal effect rating ORYSAT ([1]; Rate 0.0320 kg/ha) | herbicidal effect rating ORYSAT ([1]; Rate 0.0620 kg/ha) | herbicidal effect rating, ECHORC ([4]; Rate 0.1250 kg/ha)
0.0: herbicidal effect rating, SAGPY (Sagittaria pygmaea, L.; Rate 0.0320 kg/ha) | herbicidal effect rating, CYPSE ([2]; Rate 0.0320 kg/ha)
8.0: herbicidal effect rating, ECHORC ([4]; Rate 0.2500 kg/ha)
3.0: herbicidal effect rating, CYPSE ([2]; Rate 0.0620 kg/ha) | herbicidal effect rating, ECHORC ([4]; Rate 0.0320 kg/ha) | herbicidal effect rating, ECHORC ([4]; Rate 0.0620 kg/ha)
7.0: herbicidal effect rating ORYSAT ([1]; Rate 0.1250 kg/ha) | herbicidal effect rating ORYSAT ([1]; Rate 0.2500 kg/ha) | herbicidal effect rating, CYPIR (Cyperus iria; Rate 0.0320 kg/ha) | herbicidal effect rating, CYPIR (Cyperus iria; Rate 0.0620 kg/ha)
9.0: herbicidal effect rating, SAGPY (Sagittaria pygmaea, L.; Rate 0.1250 kg/ha) | herbicidal effect rating, SAGPY (Sagittaria pygmaea, L.; Rate 0.2500 kg/ha) | herbicidal effect rating, CYPSE ([2]; Rate 0.2500 kg/ha) | herbicidal effect rating, MOOVA ([3]; Rate 0.0320 kg/ha) | herbicidal effect rating, MOOVA ([3]; Rate 0.0620 kg/ha) | herbicidal effect rating, MOOVA ([3]; Rate 0.1250 kg/ha) | herbicidal effect rating, MOOVA ([3]; Rate 0.2500 kg/ha) | herbicidal effect rating, CYPIR (Cyperus iria; Rate 0.1250 kg/ha) | herbicidal effect rating, CYPIR (Cyperus iria; Rate 0.2500 kg/ha)

CCOCN(C(=O)c1nsc2ccc(-n3c(=O)cc(C(F)(F)F)n(C)c3=O)cc12)S(C)(=O)=O [Example 370, 1,2-Benzisothiazole-3-carboxamide, 5-[3,6-dihydro-3-methyl-2,6-dioxo-4-(trifluoromethyl)-1(2H)-pyrimidinyl]-N-(ethoxymethyl)-N-(methylsulfonyl)-]
9.0: herbicidal effect rating, SAGPY (Sagittaria pygmaea, L.; Rate 0.2500 kg/ha) | herbicidal effect rating, CYPSE ([2]; Rate 0.2500 kg/ha) | herbicidal effect rating, MOOVA ([3]; Rate 0.0620 kg/ha) | herbicidal effect rating, MOOVA ([3]; Rate 0.1250 kg/ha) | herbicidal effect rating, MOOVA ([3]; Rate 0.2500 kg/ha) | herbicidal effect rating, CYPIR (Cyperus iria; Rate 0.1250 kg/ha) | herbicidal effect rating, CYPIR (Cyperus iria; Rate 0.2500 kg/ha)
6.0: herbicidal effect rating, ECHORC ([4]; Rate 0.1250 kg/ha)
0.0: herbicidal effect rating, SAGPY (Sagittaria pygmaea, L.; Rate 0.0320 kg/ha) | herbicidal effect rating, CYPSE ([2]; Rate 0.0320 kg/ha)
7.0: herbicidal effect rating, SAGPY (Sagittaria pygmaea, L.; Rate 0.1250 kg/ha) | herbicidal effect rating, CYPSE ([2]; Rate 0.1250 kg/ha) | herbicidal effect rating, MOOVA ([3]; Rate 0.0320 kg/ha) | herbicidal effect rating, ECHORC ([4]; Rate 0.2500 kg/ha) | herbicidal effect rating, CYPIR (Cyperus iria; Rate 0.0620 kg/ha)
3.0: herbicidal effect rating, SAGPY (Sagittaria pygmaea, L.; Rate 0.0620 kg/ha) | herbicidal effect rating ORYSAT ([1]; Rate 0.0320 kg/ha) | herbicidal effect rating, ECHORC ([4]; Rate 0.0320 kg/ha)
4.0: herbicidal effect rating ORYSAT ([1]; Rate 0.0620 kg/ha) | herbicidal effect rating ORYSAT ([1]; Rate 0.1250 kg/ha) | herbicidal effect rating, CYPSE ([2]; Rate 0.0620 kg/ha) | herbicidal effect rating, ECHORC ([4]; Rate 0.0620 kg/ha) | herbicidal effect rating, CYPIR (Cyperus iria; Rate 0.0320 kg/ha)
5.0: herbicidal effect rating ORYSAT ([1]; Rate 0.2500 kg/ha)

Cn1c(C(F)(F)F)cc(=O)n(-c2cc3c(C(Br)Br)nsc3cc2F)c1=O [Example 372, 2,4(1H,3H)-Pyrimidinedione, 3-[3-(dibromomethyl)-6-fluoro-1,2-benzisothiazol-5-yl]-1-methyl-6-(trifluoromethyl)-]
8.0: herbicidal effect rating ORYSAT ([1]; Rate 0.0620 kg/ha) | herbicidal effect rating ORYSAT ([1]; Rate 0.1250 kg/ha)
5.0: herbicidal effect rating, CYPSE ([2]; Rate 0.0620 kg/ha)
6.0: herbicidal effect rating ORYSAT ([1]; Rate 0.0320 kg/ha)
9.0: herbicidal effect rating, SAGPY (Sagittaria pygmaea, L.; Rate 0.0620 kg/ha) | herbicidal effect rating, SAGPY (Sagittaria pygmaea, L.; Rate 0.1250 kg/ha) | herbicidal effect rating, SAGPY (Sagittaria pygmaea, L.; Rate 0.2500 kg/ha) | herbicidal effect rating ORYSAT ([1]; Rate 0.2500 kg/ha) | herbicidal effect rating, CYPSE ([2]; Rate 0.2500 kg/ha) | herbicidal effect rating, MOOVA ([3]; Rate 0.0320 kg/ha) | herbicidal effect rating, MOOVA ([3]; Rate 0.0620 kg/ha) | herbicidal effect rating, MOOVA ([3]; Rate 0.1250 kg/ha) | herbicidal effect rating, MOOVA ([3]; Rate 0.2500 kg/ha) | herbicidal effect rating, ECHORC ([4]; Rate 0.0320 kg/ha) | herbicidal effect rating, ECHORC ([4]; Rate 0.0620 kg/ha) | herbicidal effect rating, ECHORC ([4]; Rate 0.1250 kg/ha) | herbicidal effect rating, ECHORC ([4]; Rate 0.2500 kg/ha) | herbicidal effect rating, CYPIR (Cyperus iria; Rate 0.0620 kg/ha) | herbicidal effect rating, CYPIR (Cyperus iria; Rate 0.1250 kg/ha) | herbicidal effect rating, CYPIR (Cyperus iria; Rate 0.2500 kg/ha)
1.0: herbicidal effect rating, CYPSE ([2]; Rate 0.0320 kg/ha)
8.5: herbicidal effect rating, SAGPY (Sagittaria pygmaea, L.; Rate 0.0320 kg/ha) | herbicidal effect rating, CYPSE ([2]; Rate 0.1250 kg/ha) | herbicidal effect rating, CYPIR (Cyperus iria; Rate 0.0320 kg/ha)

Cn1c(C(F)(F)F)cc(=O)n(-c2ccc3snc(C#N)c3c2)c1=O [Example 373, 1,2-Benzisothiazole-3-carbonitrile, 5-[3,6-dihydro-3-methyl-2,6-dioxo-4-(trifluoromethyl)-1(2H)-pyrimidinyl]-]
5.5: herbicidal effect rating, SAGPY (Sagittaria pygmaea, L.; Rate 0.0320 kg/ha) | herbicidal effect rating ORYSAT ([1]; Rate 0.0320 kg/ha)
2.0: herbicidal effect rating, CYPSE ([2]; Rate 0.0320 kg/ha)
6.5: herbicidal effect rating ORYSAT ([1]; Rate 0.0620 kg/ha) | herbicidal effect rating, ECHORC ([4]; Rate 0.0320 kg/ha) | herbicidal effect rating, CYPIR (Cyperus iria; Rate 0.0320 kg/ha)
8.0: herbicidal effect rating ORYSAT ([1]; Rate 0.2500 kg/ha) | herbicidal effect rating, CYPSE ([2]; Rate 0.2500 kg/ha)
5.0: herbicidal effect rating, CYPSE ([2]; Rate 0.0620 kg/ha)
6.0: herbicidal effect rating ORYSAT ([1]; Rate 0.1250 kg/ha)
9.0: herbicidal effect rating, SAGPY (Sagittaria pygmaea, L.; Rate 0.1250 kg/ha) | herbicidal effect rating, SAGPY (Sagittaria pygmaea, L.; Rate 0.2500 kg/ha) | herbicidal effect rating, MOOVA ([3]; Rate 0.0320 kg/ha) | herbicidal effect rating, MOOVA ([3]; Rate 0.0620 kg/ha) | herbicidal effect rating, MOOVA ([3]; Rate 0.1250 kg/ha) | herbicidal effect rating, MOOVA ([3]; Rate 0.2500 kg/ha) | herbicidal effect rating, ECHORC ([4]; Rate 0.0620 kg/ha) | herbicidal effect rating, ECHORC ([4]; Rate 0.1250 kg/ha) | herbicidal effect rating, ECHORC ([4]; Rate 0.2500 kg/ha) | herbicidal effect rating, CYPIR (Cyperus iria; Rate 0.0620 kg/ha) | herbicidal effect rating, CYPIR (Cyperus iria; Rate 0.1250 kg/ha) | herbicidal effect rating, CYPIR (Cyperus iria; Rate 0.2500 kg/ha)
7.5: herbicidal effect rating, CYPSE ([2]; Rate 0.1250 kg/ha)
8.5: herbicidal effect rating, SAGPY (Sagittaria pygmaea, L.; Rate 0.0620 kg/ha)

CNC(=O)OCc1nsc2ccc(-n3c(=O)cc(C(F)(F)F)n(C)c3=O)cc12 [Example 374, 2,4(1H,3H)-Pyrimidinedione, 3-[3-(hydroxymethyl)1,2-benzisothiazol-5-yl]-1-methyl-6-(trifluoromethyl)-, methylcarbamate (ester)]
7.0: herbicidal effect rating ORYSAT ([1]; Rate 0.2500 kg/ha)
6.0: herbicidal effect rating, SAGPY (Sagittaria pygmaea, L.; Rate 0.1250 kg/ha) | herbicidal effect rating ORYSAT ([1]; Rate 0.1250 kg/ha) | herbicidal effect rating, ECHORC ([4]; Rate 0.2500 kg/ha) | herbicidal effect rating, CYPIR (Cyperus iria; Rate 0.0320 kg/ha)
0.0: herbicidal effect rating, CYPSE ([2]; Rate 0.0320 kg/ha) | herbicidal effect rating, CYPSE ([2]; Rate 0.0620 kg/ha) | herbicidal effect rating, CYPSE ([2]; Rate 0.1250 kg/ha)
3.0: herbicidal effect rating, SAGPY (Sagittaria pygmaea, L.; Rate 0.0620 kg/ha) | herbicidal effect rating, ECHORC ([4]; Rate 0.0320 kg/ha) | herbicidal effect rating, ECHORC ([4]; Rate 0.0620 kg/ha)
2.0: herbicidal effect rating, SAGPY (Sagittaria pygmaea, L.; Rate 0.0320 kg/ha)
9.0: herbicidal effect rating, SAGPY (Sagittaria pygmaea, L.; Rate 0.2500 kg/ha) | herbicidal effect rating, MOOVA ([3]; Rate 0.0320 kg/ha) | herbicidal effect rating, MOOVA ([3]; Rate 0.0620 kg/ha) | herbicidal effect rating, MOOVA ([3]; Rate 0.1250 kg/ha) | herbicidal effect rating, MOOVA ([3]; Rate 0.2500 kg/ha) | herbicidal effect rating, CYPIR (Cyperus iria; Rate 0.0620 kg/ha) | herbicidal effect rating, CYPIR (Cyperus iria; Rate 0.1250 kg/ha) | herbicidal effect rating, CYPIR (Cyperus iria; Rate 0.2500 kg/ha)
4.0: herbicidal effect rating ORYSAT ([1]; Rate 0.0320 kg/ha) | herbicidal effect rating ORYSAT ([1]; Rate 0.0620 kg/ha) | herbicidal effect rating, ECHORC ([4]; Rate 0.1250 kg/ha)
5.0: herbicidal effect rating, CYPSE ([2]; Rate 0.2500 kg/ha)
